Molecular target: T1, GluN1-L135H/GluN2B (UniProt P35439+Q01097, L135H)
T1 construct: expressed in transfected cells; host or cells: Xenopus laevis oocytes (nuclear cDNA injection)
Assay: TEVC on Xenopus oocytes, ifenprodil site mutant
Format: cell-based, rat GluN1, mouse GluN2B
Conditions: 1 µM trans-OptoNAM-3 (dark)
From the text: We finally investigated the location of the OptoNAM-3 binding-site on the receptor. […] The binding site for GluN2B-selective antagonists at the GluN1/GluN2B NTD dimer interface contains two partially overlapping pockets that accommodate GluN2B-selective NAMs of distinct chemical scaffolds:[19] either scaffolds related to ifenprodil or scaffolds related to another GluN2B-selective NAM called EVT-101.[47]
We used cDNA coding for rat GluN1–1a (named GluN1 herein) (GenBank: U08261.1), rat GluN2A (GenBank: D13211.1), mouse GluN2B (GenBank: D10651.2), rat GluA1 flop (GenBank: M36418.2), and rat Myc-GluA2(Q)-flip (GenBank: AF164344.1) cloned into pcDNA3-based expression plasmids. GluK2 (GenBank: Z11548.1) corresponds to the fully RNA-edited version.[80] The GluN2B-ΔNTD construct is from ref[45] and GluN2B–N615K is from ref[81]. Single mutants GluN2B-Q110G and GluN1-L135H were from ref[19]. The GluA2 cDNA contains a Myc tag ([…]) fused between the signal peptide and the N-terminus sequences, and the GluA2 subunit is […] for its Q/R/N site (GluA2(Q)) to allow permeation of homomeric GluA2 receptors.[2] cDNAs coding for rat GluN2C (GenBank: M91563.1) and GluN2D subunits (GenBank: L31611.1) were in prK5 plasmids. […]

T1 sequence (Q01097 27-1482, other chains not shown): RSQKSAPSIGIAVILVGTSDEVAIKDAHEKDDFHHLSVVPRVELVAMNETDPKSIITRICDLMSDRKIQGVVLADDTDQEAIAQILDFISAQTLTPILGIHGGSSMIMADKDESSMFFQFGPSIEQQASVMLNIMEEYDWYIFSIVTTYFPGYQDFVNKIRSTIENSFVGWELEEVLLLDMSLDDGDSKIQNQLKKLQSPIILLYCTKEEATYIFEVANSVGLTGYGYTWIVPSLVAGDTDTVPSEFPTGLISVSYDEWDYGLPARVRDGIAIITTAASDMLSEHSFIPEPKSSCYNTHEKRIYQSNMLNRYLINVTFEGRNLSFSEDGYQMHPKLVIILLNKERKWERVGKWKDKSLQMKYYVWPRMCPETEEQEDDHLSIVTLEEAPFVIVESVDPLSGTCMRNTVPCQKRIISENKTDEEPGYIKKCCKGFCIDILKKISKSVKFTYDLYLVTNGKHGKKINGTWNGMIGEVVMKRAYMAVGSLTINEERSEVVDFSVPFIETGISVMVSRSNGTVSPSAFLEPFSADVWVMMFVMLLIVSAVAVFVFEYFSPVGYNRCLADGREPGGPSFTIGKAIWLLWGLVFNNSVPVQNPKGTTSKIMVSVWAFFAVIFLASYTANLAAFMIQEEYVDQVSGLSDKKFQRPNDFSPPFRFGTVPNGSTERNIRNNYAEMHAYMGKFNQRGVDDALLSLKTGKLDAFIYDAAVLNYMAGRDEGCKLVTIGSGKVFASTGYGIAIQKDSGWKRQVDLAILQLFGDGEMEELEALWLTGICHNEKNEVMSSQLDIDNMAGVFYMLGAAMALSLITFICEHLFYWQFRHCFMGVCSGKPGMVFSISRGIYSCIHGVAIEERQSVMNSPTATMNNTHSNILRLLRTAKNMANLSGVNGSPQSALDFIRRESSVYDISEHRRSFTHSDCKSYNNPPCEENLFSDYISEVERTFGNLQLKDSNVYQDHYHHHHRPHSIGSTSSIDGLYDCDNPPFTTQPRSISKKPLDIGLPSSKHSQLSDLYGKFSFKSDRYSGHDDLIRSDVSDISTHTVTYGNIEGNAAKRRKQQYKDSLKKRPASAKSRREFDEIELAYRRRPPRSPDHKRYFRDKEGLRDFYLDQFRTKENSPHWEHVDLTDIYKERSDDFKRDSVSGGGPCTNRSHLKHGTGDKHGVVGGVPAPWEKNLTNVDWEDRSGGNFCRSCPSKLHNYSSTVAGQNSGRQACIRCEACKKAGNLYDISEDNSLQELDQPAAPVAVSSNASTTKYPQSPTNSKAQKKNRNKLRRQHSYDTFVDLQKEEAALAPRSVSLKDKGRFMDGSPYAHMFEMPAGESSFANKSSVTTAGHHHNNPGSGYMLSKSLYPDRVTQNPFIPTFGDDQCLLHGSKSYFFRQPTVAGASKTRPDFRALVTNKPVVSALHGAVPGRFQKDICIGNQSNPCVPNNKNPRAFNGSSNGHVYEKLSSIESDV

Question: `c1ccc(/N=N/c2ccc(CCNc3ccncc3)cc2)cc1` [OptoNAM-3, (E)-N-(4-(Phenyldiazenyl)phenethyl)pyridin-4-amine] was tested. Which “inhibition of GluN1-L135H/GluN2B” value did it give?
Answer: 13.546%

Source: PMC11413854, “Reversible Control of Native GluN2B-Containing NMDA Receptors with Visible Light” (ACS Chemical Neuroscience, 2024)
